Results as given in patent US20050009902A1, “Remedies for pruritus” (priority 2001, published 2005).

Legend:
Type in all cases: in vivo, guinea pig
histamine-induced models = experiment: Ocular pruritus inhibition activity to histamine-induced models; settings: for Number of eye scratchings: 10 μL/one eye, average, 12 eyes, control 22.8; for Number of eye scratchings / Eye scratching inhibition rate: 30 minutes after 1.0% histamine; for Eye scratching inhibition rate: vs physiological saline control
Experimental: Palmidrol was suspended in a physiological saline at a concentration of 0.1% or 0.5%(w/v), and the resulting suspension was instilled into both eyes of a 5-week-old male Hartley guinea pig in 10 μL/one eye. After 10 minutes, the palmidrol suspension at the same concentration was also instilled thereinto (twice in total). A physiological saline was used as a control.
After 5 minutes from the second instilling of palmidrol, a physiological saline containing 1.0% (w/v) histamine was instilled into both eyes of the guinea pig in 10 μL/one eye to induce eye scratching action.
The behavior of the guinea pig after administering histamine was videotaped, and the ocular pruritus was evaluated on each eye by counting actions of scratching the eye with the hind foot. The average value of the number of eye scratchings for 30 minutes after administering histamine and the eye scratching inhibition rate are shown in Table 1. In each example, 12 eyes are used.
Eye scratching inhibition rate=100−(number of eye scratchings with test compound)/(number of eye scratchings with control)×100

[1] = system: allergic conjunctivitis models; experiment: Ocular pruritus inhibition activity to allergic conjunctivitis models; settings: for Eye scratching inhibition rate: 0.1% (w/v) instilled twice before ovalbumin, 30 minutes, 12 eyes
Experimental: Aluminum hydroxide gel-adsorbed ovalbumin (20 μg/mL) was dissolved in a physiological saline, and the resulting solution was subconjunctivally injected into both eyes of a 4-week-old male Hartley guinea pig in 100-μL portions for active sensitization. On days 14, 16, 18, 21, 23 and 25 after the sensitization, a physiological saline containing 2.5% (w/v) ovalbumin was instilled into both eyes in 10 μL/one eye to induce allergic conjunctivitis. A physiological saline was used as a control.
Five minutes and 15 minutes (twice in total) before the instilling of ovalbumin on days 16, 18, 21, 23 and 25 after the sensitization, a suspension of 0.1% (w/v) palmidrol in a physiological saline was instilled into both eyes of the guinea pig in 10 μL/one eye.
The behavior of the guinea pig for 30 minutes after the instilling of ovalbumin on days 21, 23 and 25 after the sensitization were videotaped, and the ocular pruritus was evaluated by counting the number of eye scratchings in case of instilling palmidrol and a control. In each example, 12 eyes are used.

[2] = system: platelet activating factor (PAF)-induced models; experiment: Ocular pruritus inhibition activity to platelet activating factor-induced models; settings: for Eye scratching inhibition rate: 8 eyes; for Number of eye scratchings in comparison with the controls (in words): instilled suspensions, extent depends approximately on concentration
Experimental: The ocular pruritus inhibition activity to platelet activating factor (PAF)-induced models was examined using anandamide (test compound A), indometacin morpholinylamide (test compound B) and N-(benzo[d][1,3]dioxol-5-ylmethyl)-7-methoxy-2-oxo-8-penty loxy-1,2-dihydroquinoline-3-carboxamide (test compound C).
Test compound A (50 mg/ml in EtOH) was suspended in a physiological saline at a concentration of 0.01% (w/v). Test compound B was suspended in a 1.0% Tween 80/physiological saline at a concentration of 0.001% or 0.01% (w/v). Test compound C was suspended in a 5.0% Tween 80/physiolosical saline at a concentration of 0.0001%, 0.001% or 0.01% (w/v). In this manner, the test compound suspensions were prepared.
With respect to test compounds A and B, each of the test compound suspensions was instilled into both eyes of a 5-week-old male Hartley guinea pig in 10 μL/one eye. Ten minutes later, each of the test compound suspensions was instilled thereinto at the same concentration (twice in total). With respect to test compound C, the test compound suspension was instilled into both eyes of the 5-week-old male Hartley guinea pig in 10 μL/one eye.
Subsequently, with respect to test compounds A and B, a physiological saline containing 0.1% (w/v) of the platelet activating factor was instilled in 10 μL/one eye into both eyes of the guinea pig after 5 minutes from the second instilling of the respective test compound suspensions. With respect to test compound C, the same physiological saline was instilled in 10 μL/one eye into both eyes of the guinea pig after 15 minutes from the instilling of the test compound suspension. In this manner, the eye scratching action was induced. As controls of test compounds A, B and C, a 2.0% ethanol/physiological saline, a physiological saline and a 5.0% Tween 80/physiological saline were used respectively.
The behavior of the guinea pig after instilling the platelet activating factor was videotaped, and the ocular pruritus was evaluated for each eye by counting the number of actions of scratching the eye with the hind foot. The average value of the eye scratching inhibition rate for 30 minutes after instilling the platelet activating factor is shown in Table 3. In each example, 8 eyes are used.

[3] = 0.1% (w/v) suspension instilled twice
[4] = 0.5% (w/v) suspension instilled twice
[5] = 0.01% (w/v) suspension instilled twice, 30 minutes after 0.1% PAF

## CCCCCCCCCCCCCCCC(=O)NCCO [Palmidrol, N-palmitoyl-ethanolamide]
histamine-induced models; [3]
  Number of eye scratchings: 8.5 times
  Eye scratching inhibition rate: 62.8%
histamine-induced models; [4]
  Number of eye scratchings: 3.8 times
  Eye scratching inhibition rate: 83.2%
histamine-induced models; instilled 0.1% or 0.5%, extent depends on concentration
  Number of eye scratchings in comparison with the control (in words): markedly decreased
[1]; Day 21 after sensitization
  Eye scratching inhibition rate: 41.5%
[1]; Day 23 after sensitization
  Eye scratching inhibition rate: 52.3%
[1]; Day 25 after sensitization
  Eye scratching inhibition rate: 51.7%
[1]; 0.1% instilled
  Eye scratching action in comparison with the control (in words): significantly inhibited

## CCCCCOc1c(OC)ccc2cc(C(=O)NCc3ccc4c(c3)OCO4)c(=O)[nH]c12 [Test Compound C, N-(benzo[d][1,3]dioxol-5-ylmethyl)-7-methoxy-2-oxo-8-pentyloxy-1,2-dihydroquinoline-3-carboxamide]
[2]; 0.0001% (w/v) suspension instilled once, 15 minutes before 0.1% PAF, 30 minutes
  Eye scratching inhibition rate: 22.7%
[2]; 0.001% (w/v) suspension instilled once, 15 minutes before 0.1% PAF, 30 minutes
  Eye scratching inhibition rate: 34.3%
[2]; 0.01% (w/v) suspension instilled once, 15 minutes before 0.1% PAF, 30 minutes
  Eye scratching inhibition rate: 44.2%
[2]
  Number of eye scratchings in comparison with the controls (in words): markedly decreased

## CCCCC/C=C\C/C=C\C/C=C\C/C=C\CCCC(=O)NCCO [Test compound A, anandamide]
[2]; [5]
  Eye scratching inhibition rate: 40.9%
[2]
  Number of eye scratchings in comparison with the controls (in words): markedly decreased

## COc1ccc2c(c1)c(CC(=O)N1CCOCC1)c(C)n2C(=O)c1ccc(Cl)cc1 [Test compound B, indometacin morpholinylamide]
[2]; 0.001% (w/v) suspension instilled twice, 30 minutes after 0.1% PAF
  Eye scratching inhibition rate: 38.7%
[2]; [5]
  Eye scratching inhibition rate: 52.9%
[2]
  Number of eye scratchings in comparison with the controls (in words): markedly decreased
